Each block holds one molecule with its values, some of them ahead of it. Starred links: 1 amine or outer side, 2 acyl side, 3 side chain; linkers in the order of their positions; H or OH if unused. Positions of bridges follow the written chain, without caps; N, C: chain ends. Non-standard residues stand in square brackets, D forms with d. Residues, ends and D or L forms follow the SMILES beside them. Chains are numbered I, II in the order given. Actinocin(9to1) = Cc1c2oc3c(C)ccc(C(=O)[*:1])c3nc-2c(C(=O)[*:2])c(N)c1=O; NMeV = CN[C@H](C(=O)O)C(C)C; Sar = CNCC(=O)O
Tests used:
[1] = target: T1, Human immunodeficiency virus type 1 reverse transcriptase (Human immunodeficiency virus 1, UniProt Q72547); assay: Inhibition of HIV-1 reverse transcriptase using Poly(rA).p(dT) (12 to 18) as substrate after 30 mins by single point PCR assay
[2] = target: T1, Human immunodeficiency virus type 1 reverse transcriptase; assay: Inhibition of HIV-1 reverse transcriptase using 0.05 ug/mL of Poly(rA).p(dT) (12 to 18) as substrate after 30 mins by single point PCR assay
[3] = target: T1, Human immunodeficiency virus type 1 reverse transcriptase; assay: Inhibition of HIV-1 reverse transcriptase using 25 ug/mL of Poly(rA).p(dT) (12 to 18) as substrate after 30 mins by single point PCR assay in presence of 340 uM base pair of calf thymus DNA
[4] = target: T1, Human immunodeficiency virus type 1 reverse transcriptase; assay: Inhibition of HIV-1 reverse transcriptase using 25 ug/mL of Poly(rA).p(dT) (12 to 18) as substrate after 30 mins by single point PCR assay
[5] = Inhibition of telomerase in human HeLa cell extract by fluorescence-based assay; type: cell-free
[6] = Inhibition of partially purified telomerase by fluorescence-based assay
[7] = target: T1, Human immunodeficiency virus type 1 reverse transcriptase; assay: Inhibition of HIV-1 reverse transcriptase using 0.5 ug/mL of Poly(rA).p(dT) (12 to 18) as substrate after 30 mins by single point PCR assay
[8] = Inhibition of telomerase

Compound: Cc1cc2cc3cc(C)c(N)cc3nc2cc1N [ACRIDINE YELLOW]
IC50 ([1]; read-out: IC50): 32 µM

Compound: CC[n+]1c(-c2ccccc2)c2cc(N)ccc2c2ccc(N)cc21 [HOMIDIUM BROMIDE]
IC50 ([1]; read-out: IC50): 2 µM

Compound: NC(=O)C(CNC(=O)c1ccc(C[n+]2c(-c3ccccc3)c3cc(N)ccc3c3ccc(N)cc32)cc1)NC(=O)[C@@H](N)CCCNC(=O)c1ccc(C[n+]2c(-c3ccccc3)c3cc(N)ccc3c3ccc(N)cc32)cc1 (stereo not given in full)
IC50 [2]: 22.3 nM

Compound: CCOc1ccc2nc3cc(N)ccc3c(N)c2c1
IC50 ([1]; read-out: IC50): 20 µM

Compound: O=C(O)c1c2ccccc2nc2ccccc12
IC50 [1]: Not Active

Compound: O=C(O)c1cccc2cc3ccccc3cc12
IC50 [1]: Not Active

IC50 [2]: 30.7 nM
Compound: NC(=O)C(CNC(=O)c1ccc(C[n+]2c(-c3ccccc3)c3cc(N)ccc3c3ccc(N)cc32)cc1)NC(=O)CCCCCNC(=O)[C@@H](N)CCCCNC(=O)c1ccc(C[n+]2c(-c3ccccc3)c3cc(N)ccc3c3ccc(N)cc32)cc1 (stereo not given in full)

Compound: O=C(O)c1ccc2cc3ccccc3cc2c1
IC50 [1]: Not Active

Compound: NC(=O)[C@H](CCCCNC(=O)c1ccc(C[n+]2c(-c3ccccc3)c3cc(N)ccc3c3ccc(N)cc32)cc1)NC(=O)CCCNC(=O)[C@@H](N)CCCCNC(=O)c1ccc(C[n+]2c(-c3ccccc3)c3cc(N)ccc3c3ccc(N)cc32)cc1
IC50 [2]: 10.5 nM

IC50 [2]: 4.9 nM
Compound: NC(=O)[C@H](CCCNC(=O)c1ccc(C[n+]2c(-c3ccccc3)c3cc(N)ccc3c3ccc(N)cc32)cc1)NC(=O)CCCCCNC(=O)[C@@H](N)CCCNC(=O)c1ccc(C[n+]2c(-c3ccccc3)c3cc(N)ccc3c3ccc(N)cc32)cc1

Compound: CN(C)c1ccc2cc3ccc(N(C)C)cc3nc2c1 [ACRIDINE ORANGE]
IC50 ([1]; read-out: IC50): 200 µM

Compound: COc1ccc2nc3cc(Cl)ccc3c(N)c2c1
IC50 [1]: Not Active

IC50 [2]: 9.2 nM
Compound: NC(=O)[C@H](CCCNC(=O)c1ccc(C[n+]2c(-c3ccccc3)c3cc(N)ccc3c3ccc(N)cc32)cc1)NC(=O)CCNC(=O)C(N)CNC(=O)c1ccc(C[n+]2c(-c3ccccc3)c3cc(N)ccc3c3ccc(N)cc32)cc1 (stereo not given in full)

Compound: Nc1ccc2c(c1)c(-c1ccccc1)[n+](CCCNCCNCCC[n+]1c(-c3ccccc3)c3cc(N)ccc3c3ccc(N)cc31)c1cc(N)ccc21
IC50 [3]: 8.5 µM | IC50 [4]: 2300 nM | IC50 [2]: 10.8 nM

Compound: CC[N+](C)(CC)CCC[n+]1c(-c2ccccc2)c2cc(N)ccc2c2ccc(N)cc21 [PROPIDIUM]
IC50 ([1]; read-out: IC50): 3 µM

IC50 [5]: 600 nM | IC50 [6]: 100 nM
Compound: NCCCC[C@H](NC(=O)CCNC(=O)C(N)CN)C(N)=O (stereo not given in full)

Compound: CC[n+]1c(-c2ccccc2)c2cc(N)ccc2c2ccc(N)cc21 [HOMIDIUM]
IC50 [4]: 2200 nM | IC50 [7]: 1800 nM | IC50 [8]: 3.3 µM | IC50 [2]: 2100 nM

Compound: Cc1c2oc3c(C)c(N)cc(C(=O)N[C@@H]4C(=O)N[C@H](C(C)C)C(=O)N5CCC[C@H]5C(=O)N(C)CC(=O)N(C)[C@@H](C(C)C)C(=O)O[C@@H]4C)c3nc-2c(C(=O)N[C@@H]2C(=O)N[C@H](C(C)C)C(=O)N3CCC[C@H]3C(=O)N(C)CC(=O)N(C)[C@@H](C(C)C)C(=O)O[C@@H]2C)c(N)c1=O
IC50 ([1]; read-out: IC50): 93 µM

Compound: Cc1c2ccncc2c(C)c2c1[nH]c1ccccc12 [ELLIPTECINE]
IC50 ([1]; read-out: IC50): 182 µM

Compound: COc1cccc2c1C(=O)c1c(O)c3c(c(O)c1C2=O)C[C@@](O)(C(C)=O)C[C@@H]3O[C@H]1C[C@H](N)[C@H](O)[C@H](C)O1 [DAUNORUBICIN]
IC50 ([1]; read-out: IC50): 139 µM

Compound: COc1ccc2nc3cc(Cl)ccc3c(NCCCNCCCCNCCCNc3c4ccc(Cl)cc4nc4ccc(OC)cc34)c2c1 [ACRIDINE DIMER]
IC50 [4]: 12900 nM | IC50 [7]: 400 nM | IC50 [2]: 220 nM

Compound: Cc1c2oc3c(C)ccc(C(=O)N[C@@H]4C(=O)N[C@H](C(C)C)C(=O)N5CCC[C@H]5C(=O)N(C)CC(=O)N(C)[C@@H](C(C)C)C(=O)O[C@@H]4C)c3nc-2c(C(=O)N[C@@H]2C(=O)N[C@H](C(C)C)C(=O)N3CCC[C@H]3C(=O)N(C)CC(=O)N(C)[C@@H](C(C)C)C(=O)O[C@@H]2C)c(N)c1=O [DACTINOMYCIN] (I: T[dV]P[Sar][NMeV] / II: T[dV]P[Sar][NMeV]; ester I:1-I:C, II:1-II:C; linker I:N-II:N via Actinocin(9to1))
IC50 ([1]; read-out: IC50): 270 µM

Reference: ChEMBL document CHEMBL2157905, “Inhibition of therapeutically important polymerases with high affinity bis-intercalators” (Bioorg Med Chem Lett, 2012)
